Structures can show the parent of a compound that is named as a salt.

For `C[Si](C)(C)c1ccc(-c2ccc(=O)n(Cc3ccccc3)c2)cc1`, the melting point stood at 132 °C.

`Cl.Nc1ccc(-c2ccc(=O)n(Cc3ccc(Cl)cc3F)c2)cc1` had a melting point of 266 °C.

With `COc1ccc(-c2ccc(=O)n(Cc3ccc(OC)nc3)c2)cc1` (as salt: HCl) [4-46], the melting point worked out at 126 °C.

On to `Cc1ccc(-c2ccc(=O)n(Cc3ccccc3)c2)cc1` [1-03], for which the melting point was found to be 110 °C.

`CCc1ccc(-c2ccc(=O)n(Cc3ccccc3)c2)cc1` [1-04] came in with a melting point of 80 °C.

`CC(C)(C)c1ccc(-c2ccc(=O)n(Cc3ccccc3)c2)cc1` [1-05] yielded a melting point of 145 °C.

Turning to `Cc1ccc(-c2ccc(=O)n(Cc3ccccc3)c2)cc1C` [1-06], the melting point was 118 °C.

`O=c1ccc(-c2cc(F)cc(F)c2)cn1Cc1ccccc1` [1-09] displayed a melting point of 98 °C.

Consider `O=c1ccc(-c2cccc(Cl)c2)cn1Cc1ccccc1` [1-10], for which the melting point was 120 °C.

On to `O=c1ccc(-c2ccc(Cl)c(Cl)c2)cn1Cc1ccccc1` [1-12], for which the melting point came out at 134 °C.

In turn, `O=c1ccc(-c2ccc(O)cc2)cn1Cc1ccccc1` [1-13] registered a melting point of 202 °C.

On to `CCCOc1ccc(-c2ccc(=O)n(Cc3ccccc3)c2)cc1` [1-17], for which the melting point stood at 88 °C.

`CC(C)COc1ccc(-c2ccc(=O)n(Cc3ccccc3)c2)cc1` [1-18] registered a melting point of 110 °C.

`COc1ccc(-c2ccc(=O)n(Cc3ccccc3)c2)cc1OC` [1-19] registered a melting point of 120 °C.

`O=c1ccc(-c2ccc(OC(F)(F)F)cc2)cn1Cc1ccccc1` [1-20]: the melting point was 115 °C.

`CC(=O)c1ccc(-c2ccc(=O)n(Cc3ccccc3)c2)cc1` [1-23] returned a melting point of 118 °C.

Regarding `CCOC(=O)c1ccc(-c2ccc(=O)n(Cc3ccccc3)c2)cc1` [1-24], the melting point was found to be 115 °C.

Turning to `N#Cc1ccc(-c2ccc(=O)n(Cc3ccccc3)c2)cc1` [1-25], the melting point was 131 °C.

In turn, `CN(C)c1ccc(-c2ccc(=O)n(Cc3ccccc3)c2)cc1` [1-26] gave a melting point of 153 °C.

For `O=c1ccc(-c2cccc([N+](=O)[O-])c2)cn1Cc1ccccc1` [1-27], the melting point is 149 °C.

For the molecule `COc1ccc(-c2ccc(=O)n(Cc3ccccc3)c2)cn1` [1-29], the melting point is 180 to 181 °C.

Molecule `O=c1ccc(-c2ccc3[nH]ccc3c2)cn1Cc1ccccc1` [1-30] registered a melting point of 93 °C.

Turning to `O=c1ccc(-c2ccc3ccccc3c2)cn1Cc1ccccc1` [1-32], the melting point is 114 °C.

Molecule `O=c1ccc(C2CCCCC2)cn1Cc1ccc(Cl)cc1` [2-01, 1-(4-Chlorobenzyl)-5-cyclohexylpyridin-2(1H)-one] gave a melting point of 72 °C.

As for `Cc1ccc(-c2ccc(=O)n(Cc3ccc(Cl)cc3)c2)cc1` [2-03], the melting point lay in the range of 126 to 128 °C.

`CC(C)Cc1ccc(-c2ccc(=O)n(Cc3ccc(Cl)cc3)c2)cc1` [2-04] gave a melting point of 115 °C.

As for `CCC(C)c1ccc(-c2ccc(=O)n(Cc3ccc(Cl)cc3)c2)cc1` (stereo not shown) [2-05], the melting point amounted to 73 °C.

In turn, `C=Cc1ccc(-c2ccc(=O)n(Cc3ccc(Cl)cc3)c2)cc1` [2-06] yielded a melting point of 125 °C.

In turn, `Cc1ccc(-c2ccc(=O)n(Cc3ccc(Cl)cc3)c2)cc1F` [2-10] gave a melting point of 109 to 112 °C.

As for `COc1ccc(-c2ccc(=O)n(Cc3ccc(Cl)cc3)c2)c(F)c1` [2-11], the melting point came out at 89 °C.

Consider `O=c1ccc(-c2ccc(O)cc2)cn1Cc1ccc(Cl)cc1` [2-13], for which the melting point stood at 202 °C.

Turning to `O=c1ccc(-c2ccc(CO)cc2)cn1Cc1ccc(Cl)cc1` [2-14], the melting point was 155 °C.

`CC(C)(O)c1ccc(-c2ccc(=O)n(Cc3ccc(Cl)cc3)c2)cc1` [2-15, 1-(4-Chlorobenzyl)-5-(4-(2-hydroxypropan-2-yl)phenyl)pyridin-2(1H)-one] returned a melting point of 157 °C.

The molecule `O=c1ccc(-c2ccc(CCCO)cc2)cn1Cc1ccc(Cl)cc1` [2-16, 1-(4-Chlorobenzyl)-5-(4-(3-hydroxypropyl)phenyl)pyridin-2(1H)-one] had a melting point of 165 °C.

In the case of `CCOc1ccccc1-c1ccc(=O)n(Cc2ccc(Cl)cc2)c1` [2-20], the melting point is 120 to 121 °C.

As for `CC(C)Oc1ccc(-c2ccc(=O)n(Cc3ccc(Cl)cc3)c2)cc1` [2-21], the melting point is 118 °C.

In turn, `COCc1ccc(-c2ccc(=O)n(Cc3ccc(Cl)cc3)c2)cc1` [2-24] had a melting point of 109 °C.

`CCOCc1ccc(-c2ccc(=O)n(Cc3ccc(Cl)cc3)c2)cc1` [2-25, 1-(4-Chlorobenzyl)-5-(4-(ethoxymethyl)phenyl)pyridin-2(1H)-one] displayed a melting point of 109 °C.

Turning to `CC(C)COCc1ccc(-c2ccc(=O)n(Cc3ccc(Cl)cc3)c2)cc1` [2-26], the melting point was found to be 91 °C.

Take `O=c1ccc(-c2ccc(COCc3ccccc3)cc2)cn1Cc1ccc(Cl)cc1` [2-27]: the melting point turned out to be 101 °C.

As for `COCCOCc1ccc(-c2ccc(=O)n(Cc3ccc(Cl)cc3)c2)cc1` [2-28], the melting point is 79 °C.

With `CC(=O)c1ccc(-c2ccc(=O)n(Cc3ccc(Cl)cc3)c2)cc1` [2-30], the melting point worked out at 162 °C.

Molecule `O=C(O)Cc1ccc(-c2ccc(=O)n(Cc3ccc(Cl)cc3)c2)cc1` [2-31] gave a melting point of 180 °C.

As to `COC(=O)c1ccc(-c2ccc(=O)n(Cc3ccc(Cl)cc3)c2)cc1` [2-33], the melting point amounted to 175 °C.

Take `COC(=O)CCc1ccc(-c2ccc(=O)n(Cc3ccc(Cl)cc3)c2)cc1` [2-36]: the melting point is 105 °C.

`COc1ccc(-c2ccc(=O)n(Cc3ccc(Cl)cc3)c2)cc1N` [2-37] yielded a melting point of 175 °C.

`COCCNc1ccc(-c2ccc(=O)n(Cc3ccc(Cl)cc3)c2)cc1` [2-40] registered a melting point of 106 °C.

In turn, `O=c1ccc(-c2ccc(N3CCOCC3)cc2)cn1Cc1ccc(Cl)cc1` [2-41] had a melting point of 126 °C.

`CC(=O)NCCOCc1ccc(-c2ccc(=O)n(Cc3ccc(Cl)cc3)c2)cc1` [2-42, N-(2-(4-(1-(4-Chlorobenzyl)-6-oxo-1,6-dihydropyridin-3-yl)benzyloxy)ethyl)acetamide] had a melting point of 152 °C.

`CN(C)C(=O)c1ccc(-c2ccc(=O)n(Cc3ccc(Cl)cc3)c2)cc1` [2-43] gave a melting point of 176 °C.

Molecule `CNC(=O)Cc1ccc(-c2ccc(=O)n(Cc3ccc(Cl)cc3)c2)cc1` [2-44, 2-(4-(1-(4-Chlorobenzyl)-1,6-dihydro-6-oxopyridin-3-yl)phenyl)-N-methylacetamide] registered a melting point of 183 °C.

`CN(C)C(=O)Cc1ccc(-c2ccc(=O)n(Cc3ccc(Cl)cc3)c2)cc1` [2-45] yielded a melting point of 161 °C.

For the molecule `CNC(=O)CCc1ccc(-c2ccc(=O)n(Cc3ccc(Cl)cc3)c2)cc1` [2-46], the melting point was 197 °C.

Take `CN(C)C(=O)CCc1ccc(-c2ccc(=O)n(Cc3ccc(Cl)cc3)c2)cc1` [2-47]: the melting point stood at 104 °C.

`CN(C)c1ccc(-c2ccc(=O)n(Cc3ccc(Cl)cc3)c2)cc1` [2-48] gave a melting point of 155 °C.

On to `O=c1ccc(-c2ccc(Cc3nn[nH]n3)cc2)cn1Cc1ccc(Cl)cc1` [2-51, 5-(4-((2H-Tetrazol-5-yl)methyl)phenyl)-1-(4-chlorobenzyl)pyridin-2(1H)-one], for which the melting point came to 231 °C.

`CSc1ccc(-c2ccc(=O)n(Cc3ccc(Cl)cc3)c2)cc1` [2-52] returned a melting point of 132 °C.

The molecule `CCSc1ccc(-c2ccc(=O)n(Cc3ccc(Cl)cc3)c2)cc1` [2-53] returned a melting point of 109 °C.

The molecule `CS(=O)(=O)c1ccc(-c2ccc(=O)n(Cc3ccc(Cl)cc3)c2)cc1` [2-54] registered a melting point of 199 to 200 °C.

`COc1ccc(-c2ccc(=O)n(Cc3ccc(Cl)cc3)c2)cc1NS(C)(=O)=O` [2-56, N-(5-(1-(4-Chlorobenzyl)-6-oxo-1,6-dihydropyridin-3-yl)-2-methoxyphenyl)methanesulfonamide]: the melting point came out at 151 °C.

Molecule `O=c1ccc(-c2cnn(Cc3ccccc3)c2)cn1Cc1ccc(Cl)cc1` [2-58] registered a melting point of 140 to 144 °C.

Turning to `O=c1ccc(-c2ccoc2)cn1Cc1ccc(Cl)cc1` [2-59], the melting point fell in the range of 112 to 114 °C.

Molecule `Cc1ccc(-c2ccc(=O)n(Cc3ccc(Cl)cc3)c2)s1` [2-60] displayed a melting point of 101 °C.

`COc1ccc(-c2ccc(=O)n(Cc3ccc(Cl)cc3)c2)cn1` [2-62] gave a melting point of 191 °C.

`O=c1ccc(-c2ccc(Cl)nc2)cn1Cc1ccc(Cl)cc1` [2-63] had a melting point of 169 °C.

Take `CN(C)c1ccc(-c2ccc(=O)n(Cc3ccc(Cl)cc3)c2)cn1` [2-64]: the melting point is 164 °C.

As to `O=c1ccc(-c2ccc(N3CCOCC3)nc2)cn1Cc1ccc(Cl)cc1` [2-65], the melting point came to 154 °C.

`COc1ncc(-c2ccc(=O)n(Cc3ccc(Cl)cc3)c2)cn1` [2-66]: the melting point amounted to 191 °C.

As to `Cn1ccc2cc(-c3ccc(=O)n(Cc4ccc(Cl)cc4)c3)ccc21` [2-68], the melting point fell in the range of 144 to 147 °C.

The molecule `O=c1ccc(-c2ccc3c(c2)CCO3)cn1Cc1ccc(Cl)cc1` [2-69] registered a melting point of 119 °C.

Turning to `O=c1ccc(-c2cnc3ccccc3c2)cn1Cc1ccc(Cl)cc1` [2-70], the melting point was determined as 165 °C.

Consider `O=c1ccc(-c2ccc3cccnc3c2)cn1Cc1ccc(Cl)cc1` [2-71], for which the melting point was 261 °C.

Molecule `O=c1ccc(-c2ccc3nccnc3c2)cn1Cc1ccc(Cl)cc1` [2-72] displayed a melting point of 120 °C.

Consider `CN(Cc1ccc(=O)n(Cc2ccc(Cl)cc2)c1)c1ccccc1` [3-07, 1-(4-Chlorobenzyl)-5-((methyl(phenyl)amino)methyl)pyridin-1-2(1H)-one], for which the melting point was 106 °C.

As for `COc1cccc(C(O)c2ccc(=O)n(Cc3ccc(Cl)cc3)c2)c1` (stereo not shown) [3-10, 1-(4-Chlorobenzyl)-5-(hydroxy(3-methoxyphenyl)methyl)pyridin-2(1H)-one], the melting point is 120 °C.

For `COc1cccc(C(=O)c2ccc(=O)n(Cc3ccc(Cl)cc3)c2)c1` [3-12, 1-(4-Chlorobenzyl)-5-(3-methoxybenzoyl)pyridin-2(1H)-one], the melting point stood at 104 °C.

For the origin of these results see patent publication US8399493B2, “Pyridinone derivatives and their use as positive allosteric modulators of mGluR2-receptors” (Janssen Pharmaceuticals, Inc., priority 2004, dated 2013).
